Test results taken from patent US20020142944A1, “Treatment of ocular disorders” (Erasmus Universiteit Rotterdam, priority 1999, published 2002).

Assays:
[1] = test system: bilateral cystoid macular edema; assay: Treatment of cystoid macular edema, single patient; type: in vivo, human; settings: for effect on the edema or visual acuity: previous therapy before octreotide, eye drops / peribulbar injections
Protocol: One year later, they noticed blurred vision. Their visual acuity was 20/50 in the right eye and 20/40 in the left eye (by Snellen chart). […] Their visual acuity slowly deteriorated in the subsequent years. […] They had no family history of macular edema. […] The injections were stopped four weeks later, because there was no further improvement.
Treatment with 100 μg or octreotide subcutaneously once daily was resumed. […] […] stopped treatment a second time; after four weeks […] visual acuity was 20/70 in the right eye and 20/50 in the left eye. Octreotide therapy was resumed, and four weeks later […] visual acuity was 20/40 in each eye.

[2] = test system: refractory CME due to chronic uveitis; assay: Octreotide treatment of 10 patients with refractory CME due to chronic uveitis, three months; type: in vivo, human
Protocol: Patients were treated in accordance to the declaration of Helsinki. In this study, 10 consecutive patients from the Department of Ophthalmology, Erasmus University Medical Center, and the Eye Hospital Rotterdam, were selected because of refractory CME due to chronic uveitis. Since CME in uveitis can be influenced in time by multiple factors, only patients suffering from macular edema for more than 6 months were included, regardless of their immune suppressive treatment. Six patients had bilateral CME and four patients unilateral. Three patients with pars planitis needed no treatment for their inflammation but still had marked CME. Fluorescein angiography was performed within one week before starting octreotide treatment. Octreotide therapy was given after informed consent had been obtained. Dosage was started with 100 μg subcutaneously, on the first day, two times 100 μg on the second day and three times 100 μg from the third day onwards. When possible, the long-acting repeatable (LAR) formulation was prescribed in a dosage of 20 mg per 4 weeks intramuscularly, which became available during the studies. The dose of patient 3, a child, was adjusted for their age to 10 mg per month (im). Immune suppressive treatment was adjusted as based on inflammatory activity. Visual acuity was measured after 2, 4, and 12 weeks of treatment. Fluorescein angiography was repeated after three months of treatment.

[3] = after three months of treatment
[4] = three months therapy, 10 patients
[5] = after eight weeks of 100 μg subcutaneously three times daily, before treatment 20/100 in each eye
[6] = four weeks after second stop of treatment
[7] = three months after resuming 100 μg subcutaneously once daily
[8] = within two weeks after first stop of injections

## C[C@H]1C[C@H]2[C@@H]3CCC4=CC(=O)C=C[C@]4(C)[C@@]3(F)[C@@H](O)C[C@]2(C)[C@@]1(O)C(=O)CO [betamehtasone, betamethasone]
[1]
  effect on the edema or visual acuity: without beneficial effect

## C[C@@H](O)[C@@H]1NC(=O)[C@H](CCCCN)NC(=O)[C@@H](Cc2c[nH]c3ccccc23)NC(=O)[C@H](Cc2ccccc2)NC(=O)[C@@H](NC(=O)[C@H](N)Cc2ccccc2)CSSC[C@@H](C(=O)N[C@H](CO)[C@@H](C)O)NC1=O [octreotide]
[2]; [3]
  fluorescein angiographic macular edema clearly diminished: 3 eyes
  fluorescein angiographic macular edema diminished but still visible: 9 eyes
  fluorescein angiographic macular edema unaltered: 3 eyes
[2]; at week 4, 10 patients
  ocular hypertension: one
[2]; during the first days of treatment, 10 patients
  diarrhoea (only side effect observed): 4 patients
[2]; [4]
  patients in whom visual acuity or inflammation activity deteriorated: none
  patients with decreased inflammation, leading to tapered immunosuppressive therapy: Four
[2]; three months therapy, 10 patients, six bilateral and four unilateral CME
  CME dissolved by stereoscopic examination: 5 eyes
[2]; three months therapy, further eyes beside those dissolved
  CME diminished by stereoscopic examination: 11 eyes
[1]; after eight weeks of 100 μg subcutaneously three times daily
  ophthalmoscopic finding, cystoid lesions: the cysts had dried
[1]; [5]
  visual acuity in the left eye (Snellen chart): 20/50
  visual acuity in the right eye (Snellen chart): 20/40
[1]; after six weeks of 100 μg subcutaneously three times daily
  visual change noted by the patient: visual improvement
[1]; four weeks after second resumption of therapy
  visual acuity in each eye: 20/40
[1]; [6]
  visual acuity in the left eye after stopping treatment: 20/50
  visual acuity in the right eye after stopping treatment: 20/70
[1]; [7]
  fluorescein angiography finding: some foveal fluorascein leakage
  visual acuity in each eye: 20/40
[1]; whole course of treatment
  side effects from the treatment: no side effects
[1]; [8]
  ophthalmoscopic finding after stopping treatment: some fluid was observed
  visual acuity in each eye after stopping treatment: 10/50

## CCOC(=O)[C@H](CCc1ccccc1)N[C@@H](C)C(=O)N1CCC[C@H]1C(=O)O [enalapril]
[1]
  effect on the edema or visual acuity: without beneficial effect

## CC(=O)Nc1nnc(S(N)(=O)=O)s1 [acetazolamide]
[1]
  effect on the edema or visual acuity: without beneficial effect

## O=C(O)Cc1ccccc1Nc1c(Cl)cccc1Cl [diclofenac]
[1]
  effect on the edema or visual acuity: without beneficial effect
